Consider one compound from patent US20130072404A1, “APPARATUS AND PROCESSES FOR GENERATING VARIABLE CONCENTRATION OF SOLUTES IN MICRODROPLETS” (UNIVERSITE DE STRASBOURG, priority 2009, published 2013).

Assay [1] concerns the target T1, β-galactosidase (Escherichia coli, UniProt P00722). Put plainly: High-resolution dose-response screening of β-galactosidase inhibition in droplets (Example 2), FDG substrate. It is filed as biochemical, E. coli. The arrangement: purchased Grade VIII. To be noted: for IC50: 4-parameter Hill fit. The method, then: PBS was pumped through the autosampler at a rate of 200 μl/hour. On-chip, this flow was combined with solutions of enzyme and substrate, both flowing at 100 μl/hour. The enzyme solution was 20 U/ml of E. coli Grade VIII β-galactosidase in PBS containing 4 g/l BSA. The substrate solution was 240 μM FDG and 400 nM sodium fluorescein in PBS. The combined aqueous flow was segmented into droplets by the oil/surfactant solution flowing at a rate of 400 μl/hour. The optical setup was positioned just before the delay line and individual droplets were discriminated by green fluorescence. The measurement at this point provided a “pseudo blank” (no enzyme activity, equivalent to 100% inhibition) for the inhibition calculations later on: droplets with zero activity were not observed to change fluorescence between production and any measurement point in the delay line (FIG. 17).
The optical setup was repositioned to the 30-second measurement point and the droplets were analyzed continuously. Meanwhile, the autosampler was used to load 1 μl from each well of a 96-well plate into the PBS stream running through the dispersion capillary. Each well contained 20 μl of 100 μM DY-682 in PBS, plus one of four different concentrations of the inhibitor 2-phenylethyl β-D-thiogalactoside (PETG; Invitrogen Corp., California, USA): 600 μM (“high”), 120 μM (“medium”), 24 μM (“low”), or zero. As each Gaussian-like pulse of DY-682 and PETG, mixed with the reaction components and segmented into droplets, arrived at the optical detector, a dose-response profile was recorded.
Offline, a Python script was used to group the droplets in the front edge of each Gaussian-like pulse by injection (˜10,000 droplets); these droplets are referred to as the injection's “dose-response droplets”. 1 second's worth of droplets directly preceding each Gaussian-like pulse were also stored (˜800 droplets). The mean green fluorescence of these droplets provided the “control” value (0% inhibition) for the injection and this value was used with the pseudo blank value (corresponding to 100% inhibition) to calculate the percentage inhibition in the subsequent dose-response droplets. […] The corrected green signal was then used to calculate the proportion of inhibition (I) in each droplet using the following equation: […]
where M is corrected measured fluorescence, B is the pseudo blank value, and C is the control value. In parallel, the NIR fluorescence signal for each droplet was used to calculate the concentration of co-injected compound. […]
For each of the 16 “medium” injections the quality of the assay was determined by calculating the Z-factor (Zhang et al., 1999).
Target sequence in this assay (P00722 2-1024): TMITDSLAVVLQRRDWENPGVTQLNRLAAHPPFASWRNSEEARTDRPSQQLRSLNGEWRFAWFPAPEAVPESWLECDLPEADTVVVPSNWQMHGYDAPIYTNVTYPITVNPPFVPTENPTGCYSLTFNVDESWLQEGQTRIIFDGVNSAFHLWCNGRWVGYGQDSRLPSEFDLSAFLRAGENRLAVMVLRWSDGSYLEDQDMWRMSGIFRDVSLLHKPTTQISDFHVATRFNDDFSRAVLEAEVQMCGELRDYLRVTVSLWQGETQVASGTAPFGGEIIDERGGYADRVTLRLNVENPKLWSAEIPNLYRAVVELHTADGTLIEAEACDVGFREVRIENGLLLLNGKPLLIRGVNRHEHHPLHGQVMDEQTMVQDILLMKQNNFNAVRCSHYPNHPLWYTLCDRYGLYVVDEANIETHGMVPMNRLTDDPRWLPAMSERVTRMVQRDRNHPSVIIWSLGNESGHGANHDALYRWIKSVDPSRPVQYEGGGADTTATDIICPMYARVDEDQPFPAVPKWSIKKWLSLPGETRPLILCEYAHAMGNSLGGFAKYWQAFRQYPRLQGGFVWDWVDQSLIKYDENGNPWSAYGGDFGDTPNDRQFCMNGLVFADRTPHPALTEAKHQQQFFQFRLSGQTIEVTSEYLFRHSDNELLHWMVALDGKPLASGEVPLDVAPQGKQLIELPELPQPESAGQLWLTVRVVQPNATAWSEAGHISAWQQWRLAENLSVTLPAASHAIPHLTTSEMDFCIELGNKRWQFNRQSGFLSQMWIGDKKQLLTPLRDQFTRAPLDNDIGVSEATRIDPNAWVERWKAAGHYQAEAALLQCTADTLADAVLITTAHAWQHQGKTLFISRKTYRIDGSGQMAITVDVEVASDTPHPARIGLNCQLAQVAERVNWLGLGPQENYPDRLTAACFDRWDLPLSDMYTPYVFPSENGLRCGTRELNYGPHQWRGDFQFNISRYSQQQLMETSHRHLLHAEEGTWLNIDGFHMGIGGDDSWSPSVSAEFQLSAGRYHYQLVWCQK

Assay [2] has as its target T1, β-galactosidase. Put plainly: Droplet microfluidic IC50 measurement, on-chip serial dilution network with scanning chamber (Example 1d), RBG substrate. The arrangement: purchased Sigma-Aldrich Co. To be noted: 75 s droplet incubation, 4-parameter log-logistic fit, read-out: IC50 of PETG in the enzyme/substrate/inhibitor system. Format: biochemical. As to the method:
In the examples, the model systems comprised an enzyme, a substrate, and an inhibitor for IC50 measurements and an enzyme and substrate alone for KM measurements. In all cases the enzyme was β-galactosidase (Sigma-Aldrich Co.), the substrate was resorufin β-D-galactopyranoside (RBG; Invitrogen Corporation), and the inhibitor was phenylethyl β-D-thiogalactopyranoside (PETG; Invitrogen Corporation).
An aqueous phase of 120 μM PETG (the inhibitor) and 100 μM sodium fluorescein in PBS were injected into the ‘compound’ input of the micro fluidic device (FIG. 4) at a flow rate of 111 μl/hr. A second aqueous phase, PBS, was injected into the ‘diluent’ input at a flow rate of 389 μl/hr. […]
A series of microdroplets were created containing PETG (and sodium fluorescein) at different concentrations: from zero to 30 μM (25 μM sodium fluorescein) and then from 30 μM to zero. […] The amounts of fluorescent resorufin (liberated by β-galactosidase activity) and sodium fluorescein were measured for each droplet by monitoring fluorescence intensity in the 590-625 and 500-520 nm channels, respectively.
About 10^5 microdroplets were plotted in an XY graph with initial reaction rate (inferred from resorufin fluorescence after 75 seconds of droplet incubation) against inhibitor concentration (assumed to be proportional to sodium fluorescein fluorescence). […]
Target sequence in this assay (P00722 2-1024 limits assumed): as the sequence (P00722 2-1024) above

Several values for one entry are separate records, joined by “and”; a condition that tells them apart may be missing. Equal values may be shown once.

A word on the inhibition: it is the drop in the measured response relative to a control, in per cent. Regarding `OC[C@H]1O[C@@H](SCCc2ccccc2)[C@H](O)[C@@H](O)[C@H]1O` [PETG, phenylethyl β-D-thiogalactopyranoside], in assay [1] (droplets containing 50 μM PETG), the inhibition came out at 97.5%. Also, the IC50 in assay [1] (mean IC50, high (600 μM) injected PETG) was 1980 nM; in assay [1] (mean IC50, low (24 μM) injected PETG), 1980 nM; in assay [1] (mean IC50, medium (120 μM) injected PETG, n=16), 2060 nM; in assay [2] it was 2210 nM and 3040 nM.
